# Experimental data from US9994915B2, “miR-211 expression and related pathways in human melanoma” (Sanford-Burnham Medical Research Institute, priority 2010, dated 2018).
# Experiments:
# Assay type in all cases: cell-based, human
# WM1552C cells = test: cell counts in hypoxic chamber (2% O2), WM1552C/211; settings: WM1552C/211 cells, hypoxic chamber 2% O2 (parental WM1552C about 64%)
# Excerpt: To test under actual hypoxic conditions, both cell lines were placed into a hypoxic chamber containing 2% O2 prior to determination of cell counts. […] As in the DFO-simulated hypoxic condition assay, the presence of miR-211 caused the effect to be greatly exacerbated, reducing survival to about 29%.
# PDK4 = test: proteomics (mass spectrometric) data, PDK4 expression; settings: miR-211-expressing melanoma cells
# Procedure: Deep-sequencing (RNA-seq) and proteomics (mass spectrometry) data from two melanoma cell lines A375 and WM1552C, each expressing miR-211 or the empty vector, were generated. […] Energy consumption was investigated in miR-211-expressing cells. Using the Seahorse XF96 Analyzer, it was determined that miR-211-expressing melanoma cells (A375) consumed nearly double the amount of oxygen as control cells expressing the empty vector (FIG. 35). […] Finally, we measured the level of hypoxia-inducible factor 1 alpha (HIF-1α) in miR-211-expressing cells. HIF-1α expression was reduced by miR-211 expression which is an indication of cellular respiration changes (FIG. 37).
# This target was further confirmed by the cleavage assay, and the downregulation was verified by western blot analysis (FIG. 38). Similarly, peroxisome proliferator-activated receptor-γ coactivator (PGC1α) was identified by the proteomics data and validated by western blot analysis. PGC1α is a low express gene in A375 cells, but it is been targeted by miR-211 according to target cleavage and qPCR results. Finally, insulin-like growth factor-binding protein 5 (IGFBP5) was identified through the RNA-seq data and results are illustrated in FIG. 34.
# A375 cells = test: lipid species (PI acyl chains) by mass spectrometry in A375 vs A375/211; settings: A375/211 vs A375 cells
# Excerpt: To determine the effect of miR-211 expression in A375 cells on the production of lipid species, as an indicator of metabolic change, fatty acids were isolated and quantitated in A375 cells and A375/211 by mass spectrometry. […] This confirms that miR-211 is capable of altering the metabolic profile of these metabolic cells.
substance,measurement,setting,value
miR-211: pre-miR-211 sequence stably expressed from plasmid pcDNA4/miR-211 in melanoma cells; mature sequence UUCCCUUUGUCAUCCUUCGCCU (SEQ ID NO: 15) (listed as Homo sapiens),survival vs normoxic condition cells,WM1552C cells,34%
same,PDK4 expression,PDK4,heavily downregulated
same,content of 18:0-18:2 acyl chains,A375 cells,large increase
same,content of 18:0-20:4 acyl chains,A375 cells,large decrease
